Reference: patent publication US20240124456A1, “AZA-ERGOLINE DERIVATIVE AND PREPARATION METHOD THEREFOR AND APPLICATION THEREOF” (SHANGHAITECH UNIVERSITY, priority 2021, published 2024)

How the values were obtained:
dopamine D2 receptors [1] = biological target: T1, dopamine D2 receptors (Homo sapiens (Human), UniProt P14416); assay: β-arrestin2 recruitment BRET, dopamine D2 receptor functional activity; assay type: cell-based; conditions: for EC50: HEK-293T, I-1 to 19 n=3, I-20 to 27 single determination, read-out: β-arrestin2 BRET EC50; for Emax: relative to the endogenous ligand dopamine, read-out: β-arrestin2 BRET Emax % ± SEM
T1 sequence (P14416 whole entry): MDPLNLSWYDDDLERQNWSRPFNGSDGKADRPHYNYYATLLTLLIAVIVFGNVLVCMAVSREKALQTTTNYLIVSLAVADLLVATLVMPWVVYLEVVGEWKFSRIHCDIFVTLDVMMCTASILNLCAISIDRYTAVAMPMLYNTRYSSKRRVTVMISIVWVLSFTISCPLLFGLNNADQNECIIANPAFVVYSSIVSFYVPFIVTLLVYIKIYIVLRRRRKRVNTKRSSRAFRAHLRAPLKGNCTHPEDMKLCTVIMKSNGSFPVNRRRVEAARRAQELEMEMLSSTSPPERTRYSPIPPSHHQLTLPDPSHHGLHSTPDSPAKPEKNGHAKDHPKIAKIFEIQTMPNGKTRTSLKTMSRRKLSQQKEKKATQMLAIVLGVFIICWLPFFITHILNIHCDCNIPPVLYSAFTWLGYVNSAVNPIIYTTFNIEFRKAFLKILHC

dopamine D2 receptors [2] = biological target: T1, dopamine D2 receptors; assay: Radioligand competition binding, affinity for dopamine D2 receptors ([3H]-Methylspiperone); conditions: [3H]-Methylspiperone (0.3-0.5 nM), HEK-293T membranes; for Ki: I-1 to 19 n=3, I-20 to 27 single determination; for Affinity pKi ± SEM: n=3
dopamine D2 receptors [3] = biological target: T1, dopamine D2 receptors; assay: G protein Gαi1-γ9 dissociation BRET, dopamine D2 receptor functional activity; assay type: cell-based; conditions: for EC50: HEK-293T, I-1 to 19 n=3, I-20 to 27 single determination, read-out: Gai1 BRET EC50; for Emax: relative to the endogenous ligand dopamine, read-out: Gai1 BRET Emax % ± SEM

O=c1ccc2ccc(OCCCCN3CCN4c5cccc6[nH]cc(c56)CC4C3)cc2[nH]1 (racemic) [Compound I-2, 7-(4(4,6,6a,7,9,10-hexahydro-8H-pyrazino[1,2-a]pyrrolo[4,3,2-de]quinolin-8-yl)butoxy)quinolin-2(1H)-one]
EC50 (dopamine D2 receptors [1]): 49 nM
Emax (dopamine D2 receptors [1]): 103%
Ki (dopamine D2 receptors [2]): 9.03 nM
EC50 (dopamine D2 receptors [3]): 14.8 nM
Emax (dopamine D2 receptors [3]): 101%

CN(C)C(=O)N[C@H]1CC[C@H](CCN2CCN3c4cccc5[nH]cc(c45)C[C@@H]3C2)CC1 [(+)-I-10]
EC50 (dopamine D2 receptors [1]): 5.25 nM
Emax (dopamine D2 receptors [1]): 90%
Ki (dopamine D2 receptors [2]): 1140 nM
Affinity pKi ± SEM (dopamine D2 receptors [2]): (5.95 ± 0.17)
EC50 (dopamine D2 receptors [3]): 9.55 nM
Emax (dopamine D2 receptors [3]): 86%

CN(C)C(=O)N[C@H]1CC[C@H](CCN2CCN3c4cccc5[nH]cc(c45)C[C@H]3C2)CC1 [(−)-I-10]
EC50 (dopamine D2 receptors [1]): 2.75 nM
Emax (dopamine D2 receptors [1]): 89%
Ki (dopamine D2 receptors [2]): 22.4 nM
Affinity pKi ± SEM (dopamine D2 receptors [2]): (7.65 ± 0.08)
EC50 (dopamine D2 receptors [3]): 1.38 nM
Emax (dopamine D2 receptors [3]): 78%

O=C1CCc2ccc(OCCCCN3CCN4c5cccc6[nH]cc(c56)CC4C3)cc2N1 (centres unmarked) [Compound I-1, 7-(4(4,6,6a,7,9,10-hexahydro-8H-pyrazino[1,2-a]pyrrolo[4,3,2-de]quinolin-8-yl)butoxy)-3,4-dihydroquinolin-2(1H)-one]
EC50 (dopamine D2 receptors [1]): 56.2 nM
Emax (dopamine D2 receptors [1]): 100%
Ki (dopamine D2 receptors [2]): 33.6 nM
Affinity pKi ± SEM (dopamine D2 receptors [2]): (7.47 ± 0.16)
EC50 (dopamine D2 receptors [3]): 16.2 nM
Emax (dopamine D2 receptors [3]): 100%
